Values of other authors as cited in patent US6953790B2, “CGRP receptor antagonists” (Merck & Co., Inc., priority 2003, dated 2005).
No end group written: not given here.

Assays:
facial blood flow [1] = conditions: marmoset, electrical stimulation of the trigeminal ganglion (Doods et al. 2000)
CGRP receptor = molecular target: T1, CGRP receptor (Homo sapiens, UniProt O60894+Q16602); conditions: clinical trials (Olesen et al. 2004)
T1 construct: host or cells: human migraine patients (in vivo)

middle meningeal artery = conditions: rats, electrical stimulation of the dura mater, prior administration (Williamson et al. 1997)
facial blood flow [2] = conditions: rat, trigeminal ganglion stimulation (Escott et al. 1995)

T1 sequence (Q16602 23-461): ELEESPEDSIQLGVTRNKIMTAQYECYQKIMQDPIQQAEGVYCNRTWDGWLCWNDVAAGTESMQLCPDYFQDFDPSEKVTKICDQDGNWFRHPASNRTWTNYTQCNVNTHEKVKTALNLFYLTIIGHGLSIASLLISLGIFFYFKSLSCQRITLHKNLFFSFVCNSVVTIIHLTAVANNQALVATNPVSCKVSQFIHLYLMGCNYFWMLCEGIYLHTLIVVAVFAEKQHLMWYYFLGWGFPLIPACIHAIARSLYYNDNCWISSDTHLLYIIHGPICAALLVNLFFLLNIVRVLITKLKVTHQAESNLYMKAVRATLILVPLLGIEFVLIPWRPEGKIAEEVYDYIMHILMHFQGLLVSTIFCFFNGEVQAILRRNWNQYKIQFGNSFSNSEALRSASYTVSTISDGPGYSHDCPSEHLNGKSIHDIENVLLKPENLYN
T1 sequence (O60894 27-148): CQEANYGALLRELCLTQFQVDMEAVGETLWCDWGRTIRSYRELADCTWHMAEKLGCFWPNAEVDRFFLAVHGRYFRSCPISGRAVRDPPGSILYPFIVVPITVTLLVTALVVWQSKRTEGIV

Compound: NCCCC[C@H](NC(=O)[C@@H](Cc1cc(Br)c(O)c(Br)c1)NC(=O)N1CCC(N2Cc3ccccc3NC2=O)CC1)C(=O)N1CCN(c2ccncc2)CC1 [BIBN4096BS]
- effect on increase in facial blood flow (facial blood flow [1]): blocked
- efficacy in acute attacks of migraine (CGRP receptor): effective in treating acute attacks of migraine

Compound: CGRP(8-37): "a peptide CGRP antagonist" (VTHRLAGLLSRSGGVVKNNFVPTNVGSKAF; ends and bridges not checked; UniProt P06881 90-119, looked up, fragment)
- effect on increase in diameter of the middle meningeal artery (middle meningeal artery): blocked
- effect on increased facial blood flow (facial blood flow [2]): inhibited
